Measurements as given in ChEMBL document CHEMBL3885861, “Open TG-GATES”.

Species: Rattus norvegicus
Assay: Open TG-GATES - Regimen: Single
Format: toxicity, organism-based, Sprague-Dawley
Set-up: regimen Single, gender Male, age 6 weeks
Details: in vivo, po, 150 mg/kg, route gavage, dose level High; for APTT / Bas / Eos / Fbg / Hb / Ht / Lym / MCHC / MCV / Mono / Neu / PT / Plat / RBC / Ret / WBC: tissue Blood; for KIDNEY_L / KIDNEY_R / KIDNEY_TOTAL: tissue Kidney; for LIVER: tissue Liver; for ALP / ALT / AST / BUN / CRE / Ca / Cl / DBIL / GLC / IP / K / LDH / Na / PL / RALB / TBIL / TC / TG / TP / gamma-GTP: tissue Plasma

For `C1CCC(C(CC2CCCCN2)C2CCCCC2)CC1` (centres undefined) [PERHEXILINE], the TERMINAL_BW (3 h) was 215.1 g, the APTT (3 h) was 21.8 s and the Bas (3 h) was 0%. For the same compound, the Eos (3 h) was 0.8%, the Fbg (3 h) was 336.6 mg/dL and the Hb (3 h) was 13.3 g/dL. The Ht (3 h) was 40.3%, the Lym (3 h) was 71.2% and the MCHC (3 h) was 33.1%. The MCV (3 h) was 65.5 fL, the Mono (3 h) was 1.6% and the Neu (3 h) was 24.8%. It also gave a PT (3 h) of 16 s, a Plat (3 h) of 129.8 x10_4/uL and an RBC (3 h) of 616 x10_4/ul. It also gave a Ret (3 h) of 7.7%, a WBC (3 h) of 64 x10_2/uL and a KIDNEY_L (3 h) of 0.9 g. For the same compound, the KIDNEY_R (3 h) was 1 g, the KIDNEY_TOTAL (3 h) was 1.9 g and the LIVER (3 h) was 9.3 g. It also gave an ALP (3 h) of 1714.6 IU/L, an ALT (3 h) of 57.2 IU/L and an AST (3 h) of 80 IU/L. It also gave a BUN (3 h) of 11 mg/dL, a CRE (3 h) of 0.1 mg/dL and a Ca (3 h) of 10.6 mg/dL. The Cl (3 h) was 104.8 meq/L, the DBIL (3 h) was 0.002 mg/dL and the GLC (3 h) was 173.6 mg/dL. The IP (3 h) was 9.4 mg/dL, the K (3 h) was 3.8 meq/L and the LDH (3 h) was 215.2 IU/L. It also gave a Na (3 h) of 140.2 meq/L, a PL (3 h) of 133.2 mg/dL and an RALB (3 h) of 3.2 g/dL. It also gave a TBIL (3 h) of 0.016 mg/dL, a TC (3 h) of 73.2 mg/dL and a TG (3 h) of 46.8 mg/dL. For the same compound, the TP (3 h) was 5.8 g/dL, the gamma-GTP (3 h) was 0.8 IU/L and the TERMINAL_BW (6 h) was 213.5 g. The APTT (6 h) was 22.8 s, the Bas (6 h) was 0% and the Eos (6 h) was 1%. The Fbg (6 h) was 336.8 mg/dL, the Hb (6 h) was 13.1 g/dL and the Ht (6 h) was 39.1%. For the same compound, the Lym (6 h) was 68.8%, the MCHC (6 h) was 33.5% and the MCV (6 h) was 62.8 fL. The Mono (6 h) was 1.8%, the Neu (6 h) was 27.2% and the PT (6 h) was 15.2 s. The Plat (6 h) was 142.9 x10_4/uL, the RBC (6 h) was 622.4 x10_4/ul and the Ret (6 h) was 7.9%. It also gave a WBC (6 h) of 59.6 x10_2/uL, a KIDNEY_L (6 h) of 1 g and a KIDNEY_R (6 h) of 1 g. For the same compound, the KIDNEY_TOTAL (6 h) was 1.9 g, the LIVER (6 h) was 9.1 g and the ALP (6 h) was 1591 IU/L. The ALT (6 h) was 51.8 IU/L, the AST (6 h) was 75.8 IU/L and the BUN (6 h) was 10.6 mg/dL. The CRE (6 h) was 0.1 mg/dL, the Ca (6 h) was 10.6 mg/dL and the Cl (6 h) was 106 meq/L. For the same compound, the DBIL (6 h) was 0.002 mg/dL, the GLC (6 h) was 172.4 mg/dL and the IP (6 h) was 9.2 mg/dL. The K (6 h) was 4.2 meq/L, the LDH (6 h) was 238.8 IU/L and the Na (6 h) was 140.2 meq/L. The PL (6 h) was 148.6 mg/dL, the RALB (6 h) was 3.2 g/dL and the TBIL (6 h) was 0.018 mg/dL. It also gave a TC (6 h) of 75 mg/dL, a TG (6 h) of 82 mg/dL and a TP (6 h) of 5.7 g/dL. It also gave a gamma-GTP (6 h) of 1 IU/L, a TERMINAL_BW (9 h) of 220.6 g and an APTT (9 h) of 21.1 s. It also gave a Bas (9 h) of 0%, an Eos (9 h) of 1% and a Fbg (9 h) of 326.4 mg/dL. The Hb (9 h) was 13.2 g/dL, the Ht (9 h) was 39.7% and the Lym (9 h) was 66.8%. The MCHC (9 h) was 33.2%, the MCV (9 h) was 63.9 fL and the Mono (9 h) was 1.6%. For the same compound, the Neu (9 h) was 30%, the PT (9 h) was 15.5 s and the Plat (9 h) was 128.9 x10_4/uL. For the same compound, the RBC (9 h) was 622.8 x10_4/ul, the Ret (9 h) was 7.7% and the WBC (9 h) was 64.2 x10_2/uL. The KIDNEY_L (9 h) was 1.1 g, the KIDNEY_R (9 h) was 1.1 g and the KIDNEY_TOTAL (9 h) was 2.1 g. It also gave an LIVER (9 h) of 9.7 g, an ALP (9 h) of 1539.6 IU/L and an ALT (9 h) of 39 IU/L. It also gave an AST (9 h) of 66.6 IU/L, a BUN (9 h) of 11.4 mg/dL and a CRE (9 h) of 0.1 mg/dL. For the same compound, the Ca (9 h) was 10.9 mg/dL, the Cl (9 h) was 105.2 meq/L and the DBIL (9 h) was 0.004 mg/dL. For the same compound, the GLC (9 h) was 171.2 mg/dL, the IP (9 h) was 9.6 mg/dL and the K (9 h) was 4 meq/L. The LDH (9 h) was 217.8 IU/L, the Na (9 h) was 138.8 meq/L and the PL (9 h) was 121 mg/dL. The RALB (9 h) was 3 g/dL, the TBIL (9 h) was 0.014 mg/dL and the TC (9 h) was 62 mg/dL. It also gave a TG (9 h) of 48.2 mg/dL, a TP (9 h) of 5.6 g/dL and a gamma-GTP (9 h) of 1 IU/L. For the same compound, the TERMINAL_BW (24 h) was 208.6 g, the APTT (24 h) was 21.2 s and the Bas (24 h) was 0%. The Eos (24 h) was 1%, the Fbg (24 h) was 327.6 mg/dL and the Hb (24 h) was 13.6 g/dL. For the same compound, the Ht (24 h) was 40.4%, the Lym (24 h) was 82% and the MCHC (24 h) was 33.6%. It also gave an MCV (24 h) of 62.7 fL, a Mono (24 h) of 1.2% and a Neu (24 h) of 15.4%. It also gave a PT (24 h) of 16.1 s, a Plat (24 h) of 132.8 x10_4/uL and an RBC (24 h) of 645.6 x10_4/ul. The Ret (24 h) was 6%, the WBC (24 h) was 65.9 x10_2/uL and the KIDNEY_L (24 h) was 0.9 g. For the same compound, the KIDNEY_R (24 h) was 1 g, the KIDNEY_TOTAL (24 h) was 1.9 g and the LIVER (24 h) was 9.4 g. For the same compound, the ALP (24 h) was 1840.2 IU/L, the ALT (24 h) was 50 IU/L and the AST (24 h) was 71.6 IU/L. The BUN (24 h) was 15.4 mg/dL, the CRE (24 h) was 0.1 mg/dL and the Ca (24 h) was 10.7 mg/dL. The Cl (24 h) was 106.8 meq/L, the DBIL (24 h) was 0 mg/dL and the GLC (24 h) was 170.2 mg/dL. It also gave an IP (24 h) of 7.9 mg/dL, a K (24 h) of 4.2 meq/L and an LDH (24 h) of 256.2 IU/L. For the same compound, the Na (24 h) was 141.8 meq/L, the PL (24 h) was 149 mg/dL and the RALB (24 h) was 3.2 g/dL. For the same compound, the TBIL (24 h) was 0.012 mg/dL, the TC (24 h) was 79.6 mg/dL and the TG (24 h) was 78 mg/dL. It also gave a TP (24 h) of 5.8 g/dL and a gamma-GTP (24 h) of 1 IU/L.
